Test results reported in patent US10392368B2, “Pyrazolo and triazolo bicyclic compounds as JAK kinase inhibitors” (THERAVANCE BIOPHARMA R&D IP, LLC, priority 2017, dated 2019).

Legend:
Tyk2 = target: T1, Tyk2 (Homo sapiens, UniProt P29597); experiment: Biochemical Tyk2 kinase assay (LanthaScreen); conditions: for Ki: read-out: Tyk 2 (pKi) (converted)
T1 construct: GST; purchased Life Technologies
Summary of the method: (§1)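 Compounds were preincubated with the GST-tagged kinase and GFP-labelled STAT1 peptide for one hour before ATP initiated a one-hour reaction at ambient temperature. Phosphorylation was quantified by TR-FRET with a Tb-labelled pTyr701 antibody. Ki values were derived from IC50 using Cheng-Prusoff.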

JAK1 = target: T2, JAK1 (Homo sapiens, UniProt P23458); experiment: Biochemical JAK1 kinase assay (LanthaScreen); conditions: for Ki: read-out: JAK 1 (pKi) (converted)
T2 construct: GST; purchased Life Technologies
Summary of the method: as §1

JAK3 = target: T3, JAK3 (Homo sapiens, UniProt P52333); experiment: Biochemical JAK3 kinase assay (LanthaScreen); design: GST; purchased Life Technologies; conditions: for Ki: read-out: JAK 3 (pKi) (converted); for JAK3 (pKi)-JAK1 (pKi): selectivity: difference of pKi JAK3 and pKi JAK1
T3 sequence (P52333 1-1124): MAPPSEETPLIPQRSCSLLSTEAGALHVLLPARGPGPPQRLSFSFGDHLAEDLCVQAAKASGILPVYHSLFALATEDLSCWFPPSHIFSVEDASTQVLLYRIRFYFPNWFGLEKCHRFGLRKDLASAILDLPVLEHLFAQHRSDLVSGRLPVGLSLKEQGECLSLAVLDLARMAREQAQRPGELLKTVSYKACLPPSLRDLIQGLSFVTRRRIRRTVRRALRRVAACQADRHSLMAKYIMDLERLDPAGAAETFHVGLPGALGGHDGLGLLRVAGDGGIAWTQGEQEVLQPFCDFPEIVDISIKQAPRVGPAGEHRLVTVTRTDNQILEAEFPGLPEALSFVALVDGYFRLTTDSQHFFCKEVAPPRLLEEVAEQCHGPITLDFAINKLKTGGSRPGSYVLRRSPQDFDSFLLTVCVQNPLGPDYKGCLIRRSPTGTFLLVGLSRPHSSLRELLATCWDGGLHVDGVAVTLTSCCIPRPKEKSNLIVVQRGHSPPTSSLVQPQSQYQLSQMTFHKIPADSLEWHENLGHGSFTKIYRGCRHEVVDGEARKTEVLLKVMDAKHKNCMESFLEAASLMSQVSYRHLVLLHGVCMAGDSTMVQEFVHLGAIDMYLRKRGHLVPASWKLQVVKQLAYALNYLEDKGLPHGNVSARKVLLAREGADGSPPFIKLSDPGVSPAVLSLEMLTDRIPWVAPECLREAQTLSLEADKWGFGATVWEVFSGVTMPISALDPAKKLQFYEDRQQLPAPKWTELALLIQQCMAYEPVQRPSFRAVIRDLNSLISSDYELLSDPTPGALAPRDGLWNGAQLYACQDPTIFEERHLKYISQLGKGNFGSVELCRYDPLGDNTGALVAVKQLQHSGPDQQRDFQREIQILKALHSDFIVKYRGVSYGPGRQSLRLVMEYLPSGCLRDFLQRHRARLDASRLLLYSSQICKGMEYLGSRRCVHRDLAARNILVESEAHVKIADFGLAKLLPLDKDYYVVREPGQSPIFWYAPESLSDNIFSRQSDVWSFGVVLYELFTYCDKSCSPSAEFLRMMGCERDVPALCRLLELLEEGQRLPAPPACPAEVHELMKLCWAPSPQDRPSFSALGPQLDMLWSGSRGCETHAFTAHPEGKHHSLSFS
Summary of the method: as §1

JAK2 = target: T4, JAK2 (Homo sapiens, UniProt O60674); experiment: Biochemical JAK2 kinase assay (LanthaScreen); conditions: for Ki: read-out: JAK 2 (pKi) (converted)
T4 construct: GST; purchased Life Technologies
Summary of the method: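 pKi values derive from pIC50 via Cheng-Prusoff, with IC50 from a 4-parameter fit of percent-inhibition TR-FRET data using Tb-anti-pSTAT1 (pTyr701) detection. Compound, GST-JAK2 and GFP-STAT1 substrate were pre-incubated 1 h, then ATP started a 1 h ambient reaction (HEPES pH 7.5, 10 mM MgCl2, 1% DMSO).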

[1] = system: IL-2 stimulated pSTAT5 in Tall-1 T cells; experiment: Cellular JAK3 potency assay: inhibition of IL-2 stimulated pSTAT5 in Tall-1 T cells; type: cell-based, human; conditions: for IC50: Homo sapiens, TALL-1, IL-2 stimulated pSTAT5 in Tall-1 T cells, read-out: Tall-1 (pIC50) (converted); for Tall-1 (pIC50): IL-2 stimulated pSTAT5 in Tall-1 T cells
Summary of the method: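 Tall-1 human T cells were preincubated with compound for 1 h at 37° C, then stimulated with IL-2 (300 ng/ml final) for 30 min. STAT5 phosphorylation in lysates was read by AlphaLisa bead emission, and IC50 from inhibition curves is given as pIC50 (mean±SD).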

T2 sequence (P23458 whole entry): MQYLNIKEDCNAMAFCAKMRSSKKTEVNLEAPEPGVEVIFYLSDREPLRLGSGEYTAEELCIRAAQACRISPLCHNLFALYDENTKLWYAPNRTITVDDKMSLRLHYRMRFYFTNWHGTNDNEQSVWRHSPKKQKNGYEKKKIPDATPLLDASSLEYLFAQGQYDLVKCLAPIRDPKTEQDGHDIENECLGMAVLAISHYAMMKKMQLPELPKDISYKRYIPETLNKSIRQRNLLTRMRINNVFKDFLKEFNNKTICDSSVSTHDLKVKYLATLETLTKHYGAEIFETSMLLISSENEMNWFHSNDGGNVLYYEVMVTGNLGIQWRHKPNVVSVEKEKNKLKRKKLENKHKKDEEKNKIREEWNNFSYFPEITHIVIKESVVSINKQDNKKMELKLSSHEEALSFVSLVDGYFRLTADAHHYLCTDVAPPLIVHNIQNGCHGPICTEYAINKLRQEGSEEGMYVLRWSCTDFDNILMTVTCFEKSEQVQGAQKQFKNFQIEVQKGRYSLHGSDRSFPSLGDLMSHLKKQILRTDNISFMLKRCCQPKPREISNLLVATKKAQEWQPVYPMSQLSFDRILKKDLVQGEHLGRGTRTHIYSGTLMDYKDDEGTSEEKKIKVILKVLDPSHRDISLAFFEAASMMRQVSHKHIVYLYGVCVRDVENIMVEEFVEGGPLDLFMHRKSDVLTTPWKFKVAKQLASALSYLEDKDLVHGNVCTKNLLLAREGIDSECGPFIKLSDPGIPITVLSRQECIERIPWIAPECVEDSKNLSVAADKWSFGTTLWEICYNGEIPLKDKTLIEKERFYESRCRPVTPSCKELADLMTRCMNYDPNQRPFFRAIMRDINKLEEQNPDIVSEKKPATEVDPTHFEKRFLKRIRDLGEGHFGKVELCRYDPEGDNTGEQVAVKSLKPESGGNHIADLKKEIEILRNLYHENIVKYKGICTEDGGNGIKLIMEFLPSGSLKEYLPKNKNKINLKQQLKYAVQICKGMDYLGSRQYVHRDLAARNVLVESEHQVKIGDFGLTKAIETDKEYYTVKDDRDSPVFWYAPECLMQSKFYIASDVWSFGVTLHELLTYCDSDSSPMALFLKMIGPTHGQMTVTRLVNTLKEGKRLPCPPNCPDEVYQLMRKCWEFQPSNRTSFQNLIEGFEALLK
T1 sequence (P29597 whole entry): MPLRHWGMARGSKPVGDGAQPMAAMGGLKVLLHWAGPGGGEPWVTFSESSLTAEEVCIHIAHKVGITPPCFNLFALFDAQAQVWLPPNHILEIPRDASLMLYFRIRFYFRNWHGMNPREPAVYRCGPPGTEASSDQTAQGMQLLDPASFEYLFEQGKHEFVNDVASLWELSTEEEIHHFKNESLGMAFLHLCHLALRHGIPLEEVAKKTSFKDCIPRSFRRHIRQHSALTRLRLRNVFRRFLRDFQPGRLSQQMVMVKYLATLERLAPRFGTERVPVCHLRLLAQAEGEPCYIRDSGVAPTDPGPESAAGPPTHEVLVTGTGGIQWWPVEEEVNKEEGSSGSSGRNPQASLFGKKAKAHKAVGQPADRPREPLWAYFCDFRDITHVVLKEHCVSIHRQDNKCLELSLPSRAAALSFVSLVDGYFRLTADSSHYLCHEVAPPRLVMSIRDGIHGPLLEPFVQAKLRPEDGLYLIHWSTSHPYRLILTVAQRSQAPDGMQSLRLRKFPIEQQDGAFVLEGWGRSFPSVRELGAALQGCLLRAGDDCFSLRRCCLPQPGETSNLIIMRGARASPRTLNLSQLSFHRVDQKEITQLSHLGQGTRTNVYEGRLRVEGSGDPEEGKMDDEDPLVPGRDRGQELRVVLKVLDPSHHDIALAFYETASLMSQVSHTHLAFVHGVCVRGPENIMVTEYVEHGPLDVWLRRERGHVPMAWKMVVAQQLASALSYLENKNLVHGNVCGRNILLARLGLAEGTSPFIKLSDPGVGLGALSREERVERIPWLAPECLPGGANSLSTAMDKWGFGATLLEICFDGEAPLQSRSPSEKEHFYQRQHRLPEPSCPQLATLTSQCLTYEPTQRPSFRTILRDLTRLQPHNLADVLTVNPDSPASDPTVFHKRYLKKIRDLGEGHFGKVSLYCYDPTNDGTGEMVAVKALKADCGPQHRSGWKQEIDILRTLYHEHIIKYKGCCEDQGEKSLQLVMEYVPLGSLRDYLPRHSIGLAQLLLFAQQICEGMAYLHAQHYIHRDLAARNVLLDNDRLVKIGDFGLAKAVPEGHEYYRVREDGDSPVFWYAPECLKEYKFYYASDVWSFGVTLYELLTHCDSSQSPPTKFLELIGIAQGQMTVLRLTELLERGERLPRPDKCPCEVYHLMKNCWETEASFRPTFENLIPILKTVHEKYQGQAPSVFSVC
T4 sequence (O60674 whole entry): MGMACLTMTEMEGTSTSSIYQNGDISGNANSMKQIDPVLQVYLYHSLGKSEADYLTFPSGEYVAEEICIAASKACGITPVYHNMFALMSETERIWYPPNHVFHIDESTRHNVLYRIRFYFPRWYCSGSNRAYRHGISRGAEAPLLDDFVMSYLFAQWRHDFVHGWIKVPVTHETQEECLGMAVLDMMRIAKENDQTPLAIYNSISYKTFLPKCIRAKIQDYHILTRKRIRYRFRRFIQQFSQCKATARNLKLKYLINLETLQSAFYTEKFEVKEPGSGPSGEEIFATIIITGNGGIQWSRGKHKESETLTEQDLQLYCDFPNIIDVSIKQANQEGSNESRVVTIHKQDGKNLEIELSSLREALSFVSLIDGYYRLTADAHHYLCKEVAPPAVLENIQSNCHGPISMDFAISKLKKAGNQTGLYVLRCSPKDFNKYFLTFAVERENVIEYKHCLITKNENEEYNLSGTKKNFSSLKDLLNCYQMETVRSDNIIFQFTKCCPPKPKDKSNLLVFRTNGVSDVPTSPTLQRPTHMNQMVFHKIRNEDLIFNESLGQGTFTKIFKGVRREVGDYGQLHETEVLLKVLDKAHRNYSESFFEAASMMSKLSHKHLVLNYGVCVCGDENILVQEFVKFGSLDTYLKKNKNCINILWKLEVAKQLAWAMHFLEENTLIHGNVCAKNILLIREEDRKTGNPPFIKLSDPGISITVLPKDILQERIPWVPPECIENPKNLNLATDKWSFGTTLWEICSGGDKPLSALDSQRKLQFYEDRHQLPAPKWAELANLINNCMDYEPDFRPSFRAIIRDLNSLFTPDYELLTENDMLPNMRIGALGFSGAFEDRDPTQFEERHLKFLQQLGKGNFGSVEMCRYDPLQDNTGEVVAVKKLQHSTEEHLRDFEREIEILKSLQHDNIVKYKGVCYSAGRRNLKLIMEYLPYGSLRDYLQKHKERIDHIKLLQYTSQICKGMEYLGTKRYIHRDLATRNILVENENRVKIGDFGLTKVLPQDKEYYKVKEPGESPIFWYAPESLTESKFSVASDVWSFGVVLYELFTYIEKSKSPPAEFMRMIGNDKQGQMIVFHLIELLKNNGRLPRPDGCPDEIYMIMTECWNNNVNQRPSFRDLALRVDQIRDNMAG

SMILES | Ki (Tyk2) [µM] | Ki (JAK1) [µM] | Ki (JAK3) [µM] | JAK3 (pKi)-JAK1 (pKi) (JAK3) | Ki (JAK2) [µM] | IC50 [1] [µM] | Tyk 2 (pKi) (Tyk2) | JAK 1 (pKi) (JAK1) | JAK 3 (pKi) (JAK3) | JAK 2 (pKi) (JAK2) | Tall-1 (pIC50) [1]
C=CC(=O)N1CC(F)(COc2nc(-c3ccc(O)c(Cl)c3)cc3[nH]ncc23)C1 [Compound 3-47] | > 0.1 | > 0.1 | 0.0001 to 0.001 | B (a value of 2.3 to 3) | 0.01 to 0.1 | < 0.0316 |  |  |  |  | 
CN(C)C/C=C/C(=O)N1CC(F)(COc2nc(-c3ccc(O)c(F)c3)cc3[nH]ncc23)C1 [Compound 3-48] |  |  |  | A (a value of 3 or above) |  |  | E (a pKi value of 7 or below (Ki of 100 nM or above)) | D (a pKi value between 7 and 8 (Ki between 100 nM and 10 nM)) | A (a pKi value≥10 (Ki≤0.1 nM)) | D (a pKi value between 7 and 8 (Ki between 100 nM and 10 nM)) | A (a pIC50 value≥7.5 (IC50≤32 nM))
C=CC(=O)N1CC(F)(COc2nc(-c3ccc(O)c(F)c3)cc3[nH]ncc23)C1 [Compound 3-49] | > 0.1 | > 0.1 | 0.0001 to 0.001 | B (a value of 2.3 to 3) | 0.01 to 0.1 | < 0.0316 |  |  |  |  | 
CN(C)C/C=C/C(=O)N1CC(F)(COc2nc(-c3ccc(O)c(Cl)c3)nc3[nH]ncc23)C1 [Compound 3-50] | > 0.1 | > 0.1 | 0.0001 to 0.001 | A (a value of 3 or above) | > 0.1 | 0.0316 to 0.2 |  |  |  |  | 
CN(C)C/C=C/C(=O)N1CC(F)(COc2nc(-c3ccc(O)c(F)c3)nc3[nH]ncc23)C1 [Compound 3-51] |  |  |  | A (a value of 3 or above) |  |  | E (a pKi value of 7 or below (Ki of 100 nM or above)) | E (a pKi value of 7 or below (Ki of 100 nM or above)) | B (a pKi value between 9 and 10 (Ki between 1 nM and 0.1 nM)) | E (a pKi value of 7 or below (Ki of 100 nM or above)) | C (a pIC50 value between 6 and 6.7 (IC50 between 1 μM and 200 nM))
CN(C)C/C=C/C(=O)N1CC(F)(COc2cc(-c3ccc(O)c(Cl)c3)nc3[nH]ncc23)C1 [Compound 3-52] |  |  |  | A (a value of 3 or above) |  |  | E (a pKi value of 7 or below (Ki of 100 nM or above)) | E (a pKi value of 7 or below (Ki of 100 nM or above)) | B (a pKi value between 9 and 10 (Ki between 1 nM and 0.1 nM)) | E (a pKi value of 7 or below (Ki of 100 nM or above)) | B (a pIC50 value between 6.7 (included) and 7.5 (IC50 between 200 nM and 32 nM))
CN(C)C/C=C/C(=O)N1CC(F)(COc2cc(-c3ccc(O)c(F)c3)nc3[nH]ncc23)C1 [Compound 3-53] | > 0.1 | > 0.1 | 0.0001 to 0.001 | A (a value of 3 or above) | > 0.1 | 0.0316 to 0.2 |  |  |  |  | 
C=CC(=O)N1CC(F)(COc2cc(-c3ccc(O)c(F)c3)nc3[nH]ncc23)C1 [Compound 3-54] |  |  |  | A (a value of 3 or above) |  |  | E (a pKi value of 7 or below (Ki of 100 nM or above)) | E (a pKi value of 7 or below (Ki of 100 nM or above)) | B (a pKi value between 9 and 10 (Ki between 1 nM and 0.1 nM)) | E (a pKi value of 7 or below (Ki of 100 nM or above)) | A (a pIC50 value≥7.5 (IC50≤32 nM))
C=CC(=O)N1CC(C)(COc2nc(-c3ccc(O)cc3)cc3[nH]ncc23)C1 [Compound 3-56] | > 0.1 | > 0.1 | < 0.0001 | A (a value of 3 or above) | 0.01 to 0.1 | < 0.0316 |  |  |  |  | 
C=CC(=O)N1CC(C)(COc2cc(-c3ccc(O)cc3)nc3[nH]ncc23)C1 [Compound 3-58] |  |  |  | A (a value of 3 or above) |  |  | E (a pKi value of 7 or below (Ki of 100 nM or above)) | E (a pKi value of 7 or below (Ki of 100 nM or above)) | A (a pKi value≥10 (Ki≤0.1 nM)) | E (a pKi value of 7 or below (Ki of 100 nM or above)) | B (a pIC50 value between 6.7 (included) and 7.5 (IC50 between 200 nM and 32 nM))
C=CC(=O)N1CC(C)(COc2nc(-c3ccc(O)c(F)c3)cc3[nH]ncc23)C1 [Compound 3-59] |  |  |  | B (a value of 2.3 to 3) |  |  | E (a pKi value of 7 or below (Ki of 100 nM or above)) | E (a pKi value of 7 or below (Ki of 100 nM or above)) | B (a pKi value between 9 and 10 (Ki between 1 nM and 0.1 nM)) | D (a pKi value between 7 and 8 (Ki between 100 nM and 10 nM)) | A (a pIC50 value≥7.5 (IC50≤32 nM))
C=C(CN(C)C)C(=O)N1CC(COc2nc(-c3ccc(O)c(Cl)c3)nc3[nH]ncc23)C1 [Compound 3-60] |  |  |  | A (a value of 3 or above) |  |  | E (a pKi value of 7 or below (Ki of 100 nM or above)) | E (a pKi value of 7 or below (Ki of 100 nM or above)) | A (a pKi value≥10 (Ki≤0.1 nM)) | E (a pKi value of 7 or below (Ki of 100 nM or above)) | B (a pIC50 value between 6.7 (included) and 7.5 (IC50 between 200 nM and 32 nM))
CCC1(COc2nc(-c3ccc(O)cc3)cc3[nH]ncc23)CN(C(=O)/C=C/CN(C)C)C1 [Compound 3-61] |  |  |  | A (a value of 3 or above) |  |  | E (a pKi value of 7 or below (Ki of 100 nM or above)) | E (a pKi value of 7 or below (Ki of 100 nM or above)) | A (a pKi value≥10 (Ki≤0.1 nM)) | D (a pKi value between 7 and 8 (Ki between 100 nM and 10 nM)) | A (a pIC50 value≥7.5 (IC50≤32 nM))
C=CC(=O)N1CC(CC)(COc2nc(-c3ccc(O)cc3)cc3[nH]ncc23)C1 [Compound 3-62] |  |  |  | A (a value of 3 or above) |  |  | E (a pKi value of 7 or below (Ki of 100 nM or above)) | E (a pKi value of 7 or below (Ki of 100 nM or above)) | B (a pKi value between 9 and 10 (Ki between 1 nM and 0.1 nM)) | D (a pKi value between 7 and 8 (Ki between 100 nM and 10 nM)) | A (a pIC50 value≥7.5 (IC50≤32 nM))
C=CC(=O)N1CC(CC)(COc2nc(-c3ccc(O)cc3)nc3[nH]ncc23)C1 [Compound 3-63] |  |  |  | A (a value of 3 or above) |  |  | E (a pKi value of 7 or below (Ki of 100 nM or above)) | E (a pKi value of 7 or below (Ki of 100 nM or above)) | A (a pKi value≥10 (Ki≤0.1 nM)) | E (a pKi value of 7 or below (Ki of 100 nM or above)) | B (a pIC50 value between 6.7 (included) and 7.5 (IC50 between 200 nM and 32 nM))
C=CC(=O)N1CC(CC)(COc2nc(-c3ccc(O)c(Cl)c3)cc3[nH]ncc23)C1 [Compound 3-66] |  |  |  | A (a value of 3 or above) |  |  | E (a pKi value of 7 or below (Ki of 100 nM or above)) | E (a pKi value of 7 or below (Ki of 100 nM or above)) | B (a pKi value between 9 and 10 (Ki between 1 nM and 0.1 nM)) | E (a pKi value of 7 or below (Ki of 100 nM or above)) | A (a pIC50 value≥7.5 (IC50≤32 nM))
